Counter-ions that a name gives are not always drawn.
The compounds below were run against ROCK2 (Homo sapiens, UniProt O75116) (assay: ROCK2 kinase inhibition assay (LABCHIP 3000 Reader, FITC peptide substrate)). Details: not given.
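Also: rho kinase reaction read by separating phosphorylated from unphosphorylated peptide on chip, with inhibition of kinase activity computed per concentration across a dose-response series.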

Chain of ROCK2 (O75116 whole entry, species assumed): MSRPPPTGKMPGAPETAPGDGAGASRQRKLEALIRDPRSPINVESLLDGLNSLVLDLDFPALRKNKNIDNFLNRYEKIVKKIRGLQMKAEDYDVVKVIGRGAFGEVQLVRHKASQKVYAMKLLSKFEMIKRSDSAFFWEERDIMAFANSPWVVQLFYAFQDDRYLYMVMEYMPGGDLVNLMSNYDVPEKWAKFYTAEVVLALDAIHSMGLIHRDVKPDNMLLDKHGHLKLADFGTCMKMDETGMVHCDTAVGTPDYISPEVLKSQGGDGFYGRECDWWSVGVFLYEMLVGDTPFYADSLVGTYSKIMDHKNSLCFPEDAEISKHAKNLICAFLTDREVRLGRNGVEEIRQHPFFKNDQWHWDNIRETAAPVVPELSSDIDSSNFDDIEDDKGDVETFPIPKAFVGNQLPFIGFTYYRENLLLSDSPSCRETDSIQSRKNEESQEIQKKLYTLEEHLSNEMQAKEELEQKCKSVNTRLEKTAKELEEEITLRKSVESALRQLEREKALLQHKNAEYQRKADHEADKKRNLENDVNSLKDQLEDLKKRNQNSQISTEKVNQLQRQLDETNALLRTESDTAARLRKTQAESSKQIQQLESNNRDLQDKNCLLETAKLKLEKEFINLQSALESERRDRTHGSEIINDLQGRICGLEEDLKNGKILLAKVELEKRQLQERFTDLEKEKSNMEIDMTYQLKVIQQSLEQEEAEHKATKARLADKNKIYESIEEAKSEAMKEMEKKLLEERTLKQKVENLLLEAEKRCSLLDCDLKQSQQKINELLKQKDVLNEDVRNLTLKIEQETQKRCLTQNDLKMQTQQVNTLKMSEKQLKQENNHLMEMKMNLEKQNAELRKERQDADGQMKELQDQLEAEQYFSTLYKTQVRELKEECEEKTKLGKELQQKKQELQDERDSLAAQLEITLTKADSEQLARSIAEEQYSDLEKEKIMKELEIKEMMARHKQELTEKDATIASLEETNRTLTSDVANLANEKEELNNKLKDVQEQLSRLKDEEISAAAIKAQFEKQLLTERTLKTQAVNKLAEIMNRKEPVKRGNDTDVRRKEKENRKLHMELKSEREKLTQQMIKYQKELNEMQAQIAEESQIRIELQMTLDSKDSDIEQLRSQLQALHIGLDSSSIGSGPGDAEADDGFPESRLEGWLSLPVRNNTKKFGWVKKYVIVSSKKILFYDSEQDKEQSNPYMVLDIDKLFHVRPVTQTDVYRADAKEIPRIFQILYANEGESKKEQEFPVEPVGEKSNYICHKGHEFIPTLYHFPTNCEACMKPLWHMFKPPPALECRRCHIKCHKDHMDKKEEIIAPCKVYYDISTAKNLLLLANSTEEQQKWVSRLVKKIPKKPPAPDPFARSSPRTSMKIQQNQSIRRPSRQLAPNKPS

Compared with `[H][C@]1(Oc2ncccc2C(N)=O)C[C@@]2(C[C@H](NC(=O)c3cn4nc(OC)ccc4n3)C2)C1` (stereo partly drawn) [Example 59, N-((aR)-6-((3-carbamoylpyridin-2-yl)oxy)spiro[3.3]heptan-2-yl)-6-methoxyimidazo[1,2-b]pyridazine-2-carboxamide], `COc1ccccc1-n1cc(C(=O)NC2CC3(C2)CC(Oc2ncccc2C(N)=O)C3)cn1` (stereo not drawn) [Example 398] is lower in IC50: 0.25 to 2.5 µM for the first, 0.005 to 0.05 µM for the second. The second is the more potent here.

Compared with `[H][C@]1(Oc2ncccc2C(N)=O)C[C@@]2(C[C@H](NC(=O)c3cc(OCCC(F)(F)F)cc(-c4cnn(C)c4)c3)C2)C1` (stereo partly drawn) [Example 57], `NC(=O)c1cccnc1O[C@H]1CC2(C[C@H](NC(=O)c3nn(C(F)F)c4cc(-c5cnn(C(F)F)c5)ccc34)C2)C1` (stereo partly drawn) [Example 112, N-((aR)-6-((3-carbamoylpyridin-2-yl)oxy)spiro[3.3]heptan-2-yl)-1-(difluoromethyl)-6-(1-(difluoromethyl)-1H-pyrazol-4-yl)-1H-indazole-3-caroxamide, trifluoroacettate] is lower in IC50: 0.05 to 0.25 µM for the first, less than 0.005 µM for the second. The second is the more potent here.

First: N#Cc1cccc(C(=O)N[C@H]2CC3(C2)C[C@H](Oc2ncccc2C(N)=O)C3)c1 (stereo partly drawn) [Example 158, 2-(((aR)-6-(3-cyanobenzamido)spiro[3.3]heptan-2-yl)oxy) nicotinamide]
Second: Cc1noc(-c2cccc(C(=O)N[C@H]3CC4(C3)C[C@H](Oc3ncccc3C(N)=O)C4)c2)n1 (stereo partly drawn) [Example 147, 2-(((aR)-6-(3-(3-methyl-1,2,4-oxadiazol-5-yl)benzamido)spiro[3.3]heptan-2-yl)oxy) nicotinamide, trifluoroacetate]
The IC50 of the first is lower: 0.05 to 0.25 µM for the first, 0.25 to 2.5 µM for the second.

`NC(=O)c1cccnc1O[C@H]1CC2(C[C@H](NC(=O)c3ccc(F)c(S(N)(=O)=O)c3)C2)C1` (stereo partly drawn) [Example 150, 2-(((aR)-6-(4-fluoro-3-sulfamoylbenzamido)spiro[3.3]heptan-2-yl)oxy) nicotinamide, trifluoroacetate] and `CC(C)(O)Cn1nc(C(=O)N[C@H]2CC3(C2)C[C@H](Oc2ncccc2C(N)=O)C3)c2ccccc21` (stereo partly drawn) [Example 102, N-((aR)-6-((3-carbamoylpyridin-2-yl)oxy)spiro[3.3]heptan-2-yl)-1-(2-hydroxy-2-methylpropyl)-1H-indazole-3-carboamide, trifluoroacetate] fall in the same range of IC50: 0.005 to 0.05 µM for the first, 0.005 to 0.05 µM for the second.

First: [H][C@]1(Oc2ncccc2C(N)=O)C[C@@]2(C[C@H](NC(=O)c3cnc4cc(N5CC(N)C5)ccn34)C2)C1 (stereo partly drawn) [Example 359, 7-(3-aminoazetidin-1-yl)-N-((aR)-6-((3-carbamoylpyridin-2-yl)oxy)spiro[3.3]heptan-2-yl)imidazo[1,2-a]pyridine-3-carboxamide]
Second: NC(=O)c1cccnc1O[C@H]1CC2(C[C@H](NC(=O)c3cnn4cc(OC5CC(F)(F)C5)ccc34)C2)C1 (stereo partly drawn) [Example 350, N-((aR)-6-((3-carbamoylpyridin-2-yl)oxy)spiro[3.3]heptan-2-yl)-6-(3,3-difluorocyclobutoxy)pyrazolo[1,5-a]pyridine-3-carboxamide]
The IC50 of the first is higher: 0.05 to 0.25 µM for the first, 0.005 to 0.05 µM for the second. The second is the more potent here.

First: NC(=O)c1cccnc1O[C@H]1CC2(C[C@H](NC(=O)c3nnn4cc(-c5cnn(C6CC6)c5)ccc34)C2)C1 (stereo partly drawn) [Example 364, N-((aR)-6-((3-carbamoylpyridin-2-yl)oxy)spiro[3.3]heptan-2-yl)-6-(1-cyclopropyl-1H-pyrazol-4-yl)-[1,2,3]triazolo[1,5-a]pyridine-3-carboxamide]
Second: [H][C@]1(Oc2ncccc2C(N)=O)C[C@@]2(C[C@H](NC(=O)c3cnn4cc(-c5ccc(=O)n(C)c5)ccc34)C2)C1 (stereo partly drawn) [Example 371, N-((aR)-6-((3-carbamoylpyridin-2-yl)oxy)spiro[3.3]heptan-2-yl)-6-(1-methyl-6-oxo-1,6-dihydropyridin-3-yl)pyrazolo[1,5-a]pyridine-3-carboxamide]
The IC50 of the first is lower: less than 0.005 µM for the first, 0.005 to 0.05 µM for the second. The first is the more potent here.

First: CC(C)(O)COc1ccc2c(C(=O)NC3CC4(C3)CC(Oc3cc(-c5cccc(O)c5)ccc3C(N)=O)C4)cnn2c1 (stereo not drawn) [Example 240, N-(6-((4-carbamoyl-3′-hydroxy-[1,1′-biphenyl]-3-yl)oxy)spiro[3.3]heptan-2-yl)-6-(2-hydroxy-2-methylpropoxy)pyrazolo[1,5-a]pyridine-3-carboxamide]
Second: CC(C)(O)COc1ccc2c(C(=O)NC3CC4(C3)CC(Oc3cc(-c5ccc(F)c(C(N)=O)c5)ccc3C(N)=O)C4)cnn2c1 (stereo not drawn) [Example 292, 4-fluoro-3′-((6-(6-(2-hydroxy-2-methylpropoxy)pyrazolo[1,5-a]pyridine-3-carboxamido)spiro[3.3]heptan-2-yl)oxy)-[1,1′-biphenyl]-3,4′-dicarboxamide]
The IC50 of the first is higher: 0.005 to 0.05 µM for the first, less than 0.005 µM for the second.

`CC(C)(O)COc1ccc2c(C(=O)NC3CC4(C3)CC(Oc3cc(N5CC(N)C5)ccc3C(N)=O)C4)cnn2c1` (stereo not drawn) [Example 260, N-(6-(5-(3-aminoazetidin-1-yl)-2-carbamoylphenoxy)spiro[3.3]heptan-2-yl)-6-(2-hydroxy-2-methylpropoxy)pyrazolo[1,5-a]pyridine-3-carboxamide, TFA] and `CC(C)(O)COc1ccc2c(C(=O)NC3CC4(C3)CC(Oc3ccccc3C(N)=O)C4)cnn2c1` (stereo not drawn) [Example 3, N-(6-(2-carbamoylphenoxy)spiro[3.3]heptan-2-yl)-6-(2-hydroxy-2-methylpropoxy)pyrazolo[1,5-a]pyridine-3-carboxamide] fall in the same range of IC50: 0.005 to 0.05 µM for the first, 0.005 to 0.05 µM for the second.

Compared with `CN(C)Cc1nc(C(=O)N[C@H]2CC3(C2)C[C@H](Oc2ncccc2C(N)=O)C3)c2ccc(OCc3ccccc3)cn12` (stereo partly drawn) [Example 416, 6-(benzyloxy)-N-((aR)-6-((3-carbamoylpyridin-2-yl)oxy)spiro[3.3]heptan-2-yl)-3-((dimethylamino)melhyl)imidazo[1,5-a]pyridine-1-carboxamide, TFA], `[H][C@]1(Oc2ncccc2C(N)=O)C[C@@]2(C[C@H](NC(=O)c3nnn4c(C5CC5)c(OCc5ccccc5)ccc34)C2)C1` (stereo partly drawn) [Example 374, 6-(benzyloxy)-N-((aR)-6-((3-carbamoylpyridin-2-yl)oxy)spiro[3.3]heptan-2-yl)-7-cyclopropyl-[1,2,3]triazolo[1,5-a]pyridine-3-carboxamide] is higher in IC50: 0.005 to 0.05 µM for the first, 0.05 to 0.25 µM for the second.

`CC(C)(O)COc1ccc2c(C(=O)NC3CC4(C3)CC(Oc3nccnc3C(N)=O)C4)cnn2c1` (stereo not drawn) [Example 7, N-(6-((3-carbamoylpyrazin-2-yl)oxy)spiro[3.3]heptan-2-yl)-6-(2-hydroxy-2-methylpropoxy)pyrazolo[1,5-a]pyridine-3-carboxamide] and `[H][C@]1(Oc2ccncc2C(N)=O)C[C@@]2(C[C@H](NC(=O)c3cnn4cc(OCC(C)(C)O)ccc34)C2)C1` (stereo partly drawn) [Example 44, N-((aR)-6-((3-carbamoylpyridin-4-yl)oxy)spiro[3.3]heptan-2-yl)-6-(2-hydroxy-2-methylpropoxy)pyrazolo[1,5-a]pyridine-3-carboxamide] fall in the same range of IC50: 0.25 to 2.5 µM for the first, 0.25 to 2.5 µM for the second.

Compared with `COCCOC(=O)Nc1ccc(-c2ccc(C(N)=O)c(OC3CC4(CC(NC(=O)c5cnn6cc(OCC(C)(C)O)ccc56)C4)C3)c2)cn1` (stereo not drawn) [Example 233, 2-methoxyethyl (5-(4-carbamoyl-3-((6-(6-(2-hydroxy-2-methylpropoxy)pyrazolo[1,5-a]pyridine-3-carboxamido)spiro[3.3]heptan-2-yl)oxy)phenyl)pyridin-2-yl)carbamate], `[H][C@]1(Oc2ccccc2C(N)=O)C[C@@]2(C[C@H](NC(=O)c3cnn4cc(OCC(C)(C)O)ccc34)C2)C1` (stereo partly drawn) [Example 16, N-((aR)-6-(2-carbamoylphenoxy)spiro[3.3]heptan-2-yl)-6-(2-hydroxy-2-methylpropoxy)pyrazolo[1,5-a]pyridine-3-carboxamide] is lower in IC50: 0.005 to 0.05 µM for the first, less than 0.005 µM for the second.

Same assay, conditions: read-out: ROCK2 Activity (ROCK2 IC50); 5 μM ATP, 1.5 μM peptide substrate, pH 7.5

Compared with `Cn1cc(-c2ccc3c(C(=O)NC4CC5(C4)CC(Oc4ncccc4C(N)=O)C5)nc(C(F)F)n3c2)cn1` [Example 439, N-((aR)-6-((3-carbamoylpyridin-2-yl)oxy)spiro[3.3]heptan-2-yl)-3-(difluoromethyl)-6-(1-methyl-1H-pyrazol-4-yl)imidazo[1,5-a]pyridine-1-carboxamide], `CC(C)(O)COc1ccc2c(C(=O)NC3CC4(C3)CC(Oc3ncccc3C(N)=O)C4)nc(C(F)(F)F)n2c1` [Example 434, N-((aR)-6-((3-carbamoylpyridin-2-yl)oxy)spiro[3.3]heptan-2-yl)-6-(2-hydroxy-2-methylpropoxy)-3-(trifluoromethyl)imidazo[1,5-a]pyridine-1-carboxamide] is higher in IC50: less than 0.005 µM for the first, 0.005 to 0.05 µM for the second.

`COc1ccc2c(c1)CCc1c(C(=O)NC3CC4(C3)CC(Oc3ncccc3C(N)=O)C4)nn(C)c1-2` [Example 380, N-((aR)-6-((3-carbamoylpyridin-2-yl)oxy)spiro[3.3]heptan-2-yl)-7-methoxy-1-methyl-4,5-dihydro-1H-benzo[g]indazole-3-carboxamide] and `NC(=O)c1cccnc1OC1CC2(CC(NC(=O)c3nc(C(F)(F)F)n4cc(OCc5ccccc5)ccc34)C2)C1` [Example 431, 6-(benzyloxy)-N-((aR)-6-((3-carbamoylpyridin-2-yl)oxy)spiro[3.3]heptan-2-yl)-3-(trifluoromethyl)imidazo[1,5-a]pyridine-1-carboxamide] fall in the same range of IC50: 0.005 to 0.05 µM for the first, 0.005 to 0.05 µM for the second.

`NC(=O)c1cccnc1OC1CC2(CC(NC(=O)c3nc(C(F)(F)F)n4cc(Br)ccc34)C2)C1` [Example 429, 6-bromo-N-((aR)-6-((3-carbamoylpyridin-2-yl)oxy)spiro[3.3]heptan-2-yl)-3-(trifluoromethyl)imidazo[1,5-a]pyridine-1-carboxamide] and `Cc1c(-c2ccc3c(C(=O)NC4CC5(C4)CC(Oc4ncccc4C(N)=O)C5)nc(C)n3c2)cnn1C` [Example 458, N-((aR)-6-((3-carbamoylpyridin-2-yl)oxy)spiro[3.3]heptan-2-yl)-6-(1,5-dimethyl-H-pyrazol-4-yl)-3-methylimidazo[1,5-a]pyridine-1-carboxamide] fall in the same range of IC50: 0.005 to 0.05 µM for the first, 0.005 to 0.05 µM for the second.

`NC(=O)c1cccnc1OC1CC2(CC(NC(=O)c3nn(CCC(F)(F)F)c4cc(OCCC(F)(F)F)ccc34)C2)C1` [Example 117, N-((aR)-6-((3-carbamoylpyridin-2-yl)oxy)spiro[3.3]heptan-2-yl)-6-(3,3,3-trifluoropropoxy)-1-(3,3,3-trifluoropropyl)-1H-indazole-3-carboxamide, trifluoroacetate] and “N-((aR)-6-((3- carbamoylpyridin-2- yl)oxy))spiro[3.3] heptan-2-yl)- 6-((E)-3,3,3- trifluoroprop-1- en-1-yl) pyrazolo[1,5- a]pyridine-3- carboxamide, trifluoroacetate [Example 116]” fall in the same range of IC50: 0.005 to 0.05 µM for the first, 0.005 to 0.05 µM for the second.

Reference: patent US10829501B2 (BRISTOL-MYERS SQUIBB COMPANY, priority 2016, dated 2020)
